Measurements from patent US20220401664A1, “FLUID DELIVERY DEVICES AND METHODS” (Droplette Inc., priority 2015, published 2022).
Read-outs that look alike come from different tables or passages of the source.

Experiments:
E. Coli DH5-α = experiment: Bacterial inhibition by antibiotics passed through the device (OD 600 nm); assay type: cell-based; settings: azithromycin 5 mg/mL, vancomycin 15 mg/mL, streptomycin 20 mg/mL, 6 hours, 37°, versus same antibiotics not passed through device
Protocol: Inhibition of bacterial strain E. Coli DH5-α with antibiotics dissolved in deionized water was tested by passing the antibiotics and water through the device. The three antibiotics tested were azithromycin (5 mg/mL), vancomycin (15 mg/mL), and streptomycin (20 mg/mL). As a positive control, the same antibiotics (not passed through the device) were tested. Additional controls included deionized water, and deionized water passed through the device. After addition of 100 μl of antibiotics or deionized water into 8 mL of LB broth, 100 μl of bacterial stock at 0.5 OD at 600 nm was added. The experiment was performed with 4 biological replicates and 3 technical replicates, providing a sample size of n=12. Samples were incubated at 37° centigrade and 200 RPM in a shaker for 6 hours and then optical density was measured at 600 nm in a spectrophotometer.

[1] = for Droplette Hydration, improvement over starting hydration: left hand
Protocol: In yet another experiment, 4 human subjects volunteered to have about 50 μL of sterile distilled water sprayed into their hand and have hydration levels measured with a Corneometer CM825 device. Skin was visually inspected for any discoloration at the time of study and after 24 hours, and subject comfort was assessed and self-reported. A pen was used to draw circles denoting a delivery site (having a circle diameter of about 1.5 cm) on the backs of the right and left hands. Hydration in the circled regions for both the right and left hands was assessed at the start with a Corneometer CM 825. A device having a configuration as disclosed in FIGS. 1-14 was used for about 30 seconds to deliver about 50 μL sterile water to the left hand of each subject. After about 5 seconds of rest, the hand was blotted dry with a tissue. About 100 μL of sterile water was topically applied to the back of the right hand of each subject in the circled region and spread to cover that area. After about 5 seconds of rest, that hand was blotted dry with a tissue.

[2] = for depth of dye penetration: delivered with the device held 1 cm away from skin; for dye penetration: standard aerosol (piezoelectric transducer only) held 1 cm away
From the text: A device having a configuration as disclosed in FIGS. 1-14 was used in a test along with a standard aerosol generated using only the piezoelectric transducer to compare dye penetration between the device and the aerosol. A mix of water and brilliant blue dye with a molecular weight of 792 Daltons was used to test penetration. Both the aerosol and the device were held 1 cm away from skin, and the solution was sprayed onto chicken and porcine skin-covered tissue. The skin and tissue were cut and dye penetration was measured. […] In between a range of 500 to 800 Daltons, there are a number of antibiotics, such as those used to treat skin and soft tissue infections. One example is ceftaroline, which is an antibiotic for Methicillin-resistant Staphylococcus aureus.

Molecule: CC[C@H]1OC(=O)[C@H](C)[C@@H](O[C@H]2C[C@@](C)(OC)[C@@H](O)[C@H](C)O2)[C@H](C)[C@@H](O[C@@H]2O[C@H](C)C[C@H](N(C)C)[C@H]2O)[C@](C)(O)C[C@@H](C)CN(C)[C@H](C)[C@@H](O)[C@]1(C)O [azithromycin]
- bacterial inhibition after being passed through the device (E. Coli DH5-α): retained their native function

Molecule: [H]/N=C(/N)N[C@H]1[C@H](O)[C@@H](O)[C@H](O[C@@H]2O[C@@H](C)[C@](O)(C=O)[C@H]2O[C@@H]2O[C@@H](CO)[C@H](O)[C@@H](O)[C@@H]2NC)[C@@H](N/C(N)=N\[H])[C@@H]1O [streptomycin]
- bacterial inhibition after being passed through the device (E. Coli DH5-α): retained their native function

Molecule: CN[C@H](CC(C)C)C(=O)N[C@H]1C(=O)N[C@@H](CC(N)=O)C(=O)N[C@H]2C(=O)N[C@H]3C(=O)N[C@H](C(=O)N[C@H](C(=O)O)c4cc(O)cc(O)c4-c4cc3ccc4O)[C@H](O)c3ccc(c(Cl)c3)Oc3cc2cc(c3O[C@@H]2O[C@H](CO)[C@@H](O)[C@H](O)[C@H]2O[C@H]2C[C@](C)(N)[C@H](O)[C@H](C)O2)Oc2ccc(cc2Cl)[C@H]1O [vancomycin]
- bacterial inhibition after being passed through the device (E. Coli DH5-α): retained their native function

Molecule: O [water]
- water delivered into skin, device compared to topical application ([1]; 4 subjects, young and mature skin): significantly more water was delivered
- Droplette Hydration, improvement over starting hydration ([1]; Subject 3, 1 Hour: Resting, about 50 μL sterile water by device): 58% improvement over
- Topical Hydration, improvement ([1]; Subject 3, 1 Hour: Resting, about 100 μL sterile water topically, right hand): 0% improvement (back
- Droplette Hydration, improvement over starting hydration ([1]; Subject 3, 2 Hours: had eaten lunch and consumed 2 cups of water, device): 55% improvement over
- Topical Hydration, improvement over baseline ([1]; Subject 3, 2 Hours: had eaten lunch and consumed 2 cups of water, topical, right hand): 11% improvement over

Molecule: brilliant blue [brilliant blue dye]
- depth of dye penetration ([2]; chicken tissue): 1.23 cm
- depth of dye penetration ([2]; porcine tissue): 1 cm
- dye penetration ([2]; chicken skin): did not penetrate either animal skin to any noticeable depth
- dye penetration ([2]; porcine skin): did not penetrate either animal skin to any noticeable depth
